Results published in ChEMBL document CHEMBL4507256 (2021).

Tests used:
[1] = target: Serine/threonine-protein kinase 17A (Homo sapiens) (UniProt Q9UEE5); settings: Compound concentration 1000.0 nM
[2] = target: Calcium/calmodulin-dependent protein kinase kinase 1 (Homo sapiens) (UniProt Q8N5S9); settings: Compound concentration 1000.0 nM
[3] = target: Serine/threonine-protein kinase D3 (Homo sapiens) (UniProt O94806); settings: Compound concentration 1000.0 nM
[4] = target: Beta-1 adrenergic receptor (Homo sapiens) (UniProt P08588); settings: Compound concentration 10.0 uM
[5] = target: Rho-associated protein kinase 2 (Homo sapiens) (UniProt O75116); settings: Compound concentration 1000.0 nM
[6] = target: Transient receptor potential cation channel subfamily A member 1 (Homo sapiens, UniProt O75762); assay: Fluorometric imaging plate reader (FLIPR)-based Ca2+ assay; set-up: compound concentration 0.03-0.3 uM
[7] = target: T1, 5-hydroxytryptamine receptor 2C (Homo sapiens) (UniProt P28335); assay: 5-HT2C (h) CEREP ligand profiling; settings: Compound concentration 10.0 uM
T1 sequence (whole entry): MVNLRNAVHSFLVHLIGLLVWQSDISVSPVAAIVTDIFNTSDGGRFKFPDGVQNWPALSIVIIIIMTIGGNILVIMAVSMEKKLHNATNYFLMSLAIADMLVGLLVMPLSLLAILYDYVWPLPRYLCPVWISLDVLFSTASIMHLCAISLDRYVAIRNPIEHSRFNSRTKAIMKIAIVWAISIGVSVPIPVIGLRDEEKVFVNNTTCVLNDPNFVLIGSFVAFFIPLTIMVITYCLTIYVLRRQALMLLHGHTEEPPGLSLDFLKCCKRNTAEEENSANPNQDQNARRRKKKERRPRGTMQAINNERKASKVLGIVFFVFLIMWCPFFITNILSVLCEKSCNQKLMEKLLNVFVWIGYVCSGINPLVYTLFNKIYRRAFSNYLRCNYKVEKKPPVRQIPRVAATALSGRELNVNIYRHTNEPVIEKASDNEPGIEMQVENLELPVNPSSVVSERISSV

[8] = target: Neuropeptide Y receptor type 1 (Homo sapiens) (UniProt P25929); assay: Y1 (h) CEREP ligand profiling; settings: Compound concentration 10.0 uM
[9] = target: D(3) dopamine receptor (Homo sapiens) (UniProt P35462); assay: D3 (h) CEREP ligand profiling; settings: Compound concentration 10.0 uM
[10] = target: Sodium-dependent noradrenaline transporter (Homo sapiens) (UniProt P23975); assay: NE transporter CEREP ligand profiling; settings: Compound concentration 10.0 uM
[11] = target: Na+ channel (sodium channel alpha subunit family) (Homo sapiens, UniProt P35498+P35499+Q01118+Q14524+Q15858+Q99250+Q9NY46+Q9UI33+Q9UQD0+Q9Y5Y9); assay: Na+ channel CEREP ligand profiling; format: protein assay; settings: probe veratridine (ligand); compound concentration 10 uM
[12] = target: Thromboxane A2 receptor (Homo sapiens) (UniProt P21731); assay: TXA2/PGH2 CEREP ligand profiling; settings: Compound concentration 10.0 uM
[13] = target: Nociceptin receptor (Homo sapiens) (UniProt P41146); assay: ORL1 (h) (NOP) CEREP ligand profiling; settings: Compound concentration 10.0 uM
[14] = target: Cholecystokinin receptor type A (Homo sapiens) (UniProt P32238); assay: CCKA (h) CEREP ligand profiling; settings: Compound concentration 10.0 uM
[15] = target: Type-2 angiotensin II receptor (Homo sapiens) (UniProt P50052); assay: AT2 (h) CEREP ligand profiling; settings: Compound concentration 10.0 uM
[16] = target: 5-hydroxytryptamine receptor 6 (Homo sapiens) (UniProt P50406); assay: 5-HT6 (h) CEREP ligand profiling; settings: Compound concentration 10.0 uM
[17] = GABA CEREP ligand profiling; settings: Compound concentration 10.0 uM
[18] = target: 5-hydroxytryptamine receptor 1B (Homo sapiens) (UniProt P28222); assay: 5-HT1B CEREP ligand profiling; settings: Compound concentration 10.0 uM
[19] = target: Beta-1 adrenergic receptor (Homo sapiens) (UniProt P08588); assay: beta1 (h) CEREP ligand profiling; settings: Compound concentration 10.0 uM
[20] = target: Histamine H2 receptor (Homo sapiens) (UniProt P25021); assay: H2 (h) CEREP ligand profiling; settings: Compound concentration 10.0 uM
[21] = K+ channel CEREP ligand profiling; settings: Compound concentration 10.0 uM
[22] = target: Neuromedin-K receptor (Homo sapiens) (UniProt P29371); assay: NK3 (h) CEREP ligand profiling; settings: Compound concentration 10.0 uM
[23] = target: Tumor necrosis factor (Homo sapiens) (UniProt P01375); assay: TNF-alpha (h) CEREP ligand profiling; settings: Compound concentration 10.0 uM
[24] = target: Substance-K receptor (Homo sapiens) (UniProt P21452); assay: NK2 (h) CEREP ligand profiling; settings: Compound concentration 10.0 uM
[25] = target: Adrenergic receptor alpha-2 (Homo sapiens) (UniProt P08913+P18825+P18089); assay: alpha 2 CEREP ligand profiling; format: protein assay; settings: Compound concentration 10.0 uM
[26] = target: Platelet-derived growth factor receptor (Homo sapiens) (UniProt P09619+P16234); assay: PDGF CEREP ligand profiling; format: protein-complex assay; settings: Compound concentration 10.0 uM
[27] = target: Somatostatin receptor (Homo sapiens) (UniProt P35346+P30874+P31391+P30872+P32745); assay: sst CEREP ligand profiling; format: protein assay; settings: Compound concentration 10.0 uM
[28] = target: T2, D(4) dopamine receptor (Homo sapiens) (UniProt P21917); assay: D4.4 (h) CEREP ligand profiling; settings: Compound concentration 10.0 uM
T2 sequence (whole entry): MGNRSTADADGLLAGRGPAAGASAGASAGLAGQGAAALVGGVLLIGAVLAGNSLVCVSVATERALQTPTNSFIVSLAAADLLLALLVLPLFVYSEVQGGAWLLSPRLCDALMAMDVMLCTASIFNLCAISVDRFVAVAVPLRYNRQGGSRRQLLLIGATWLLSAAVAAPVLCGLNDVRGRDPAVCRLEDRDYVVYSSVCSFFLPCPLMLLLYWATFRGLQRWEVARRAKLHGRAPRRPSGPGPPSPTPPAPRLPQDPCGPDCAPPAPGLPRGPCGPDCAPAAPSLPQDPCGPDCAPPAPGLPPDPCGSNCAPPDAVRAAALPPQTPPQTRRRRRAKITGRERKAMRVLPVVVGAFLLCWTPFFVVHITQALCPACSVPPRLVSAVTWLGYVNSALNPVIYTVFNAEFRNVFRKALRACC

[29] = target: Neurotensin receptor type 1 (Homo sapiens) (UniProt P30989); assay: NT1 (h) CEREP ligand profiling; settings: Compound concentration 10.0 uM
[30] = target: Beta-2 adrenergic receptor (Homo sapiens) (UniProt P07550); assay: beta 2 CEREP ligand profiling; settings: Compound concentration 10.0 uM

Chain of Beta-1 adrenergic receptor (Homo sapiens) (P08588 whole entry, looked up): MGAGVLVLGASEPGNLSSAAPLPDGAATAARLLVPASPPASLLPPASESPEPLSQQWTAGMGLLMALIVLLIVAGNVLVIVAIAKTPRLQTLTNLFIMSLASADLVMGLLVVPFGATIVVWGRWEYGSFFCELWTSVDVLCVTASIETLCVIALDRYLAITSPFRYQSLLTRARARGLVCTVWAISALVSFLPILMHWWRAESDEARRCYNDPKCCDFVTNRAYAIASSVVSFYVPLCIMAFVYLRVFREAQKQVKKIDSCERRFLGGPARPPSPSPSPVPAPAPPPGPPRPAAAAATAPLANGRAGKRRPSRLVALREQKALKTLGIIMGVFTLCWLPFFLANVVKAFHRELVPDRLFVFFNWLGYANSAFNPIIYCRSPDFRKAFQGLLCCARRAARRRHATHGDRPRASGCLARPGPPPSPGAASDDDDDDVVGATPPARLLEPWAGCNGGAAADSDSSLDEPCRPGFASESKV
Chain of Tumor necrosis factor (Homo sapiens) (P01375 whole entry): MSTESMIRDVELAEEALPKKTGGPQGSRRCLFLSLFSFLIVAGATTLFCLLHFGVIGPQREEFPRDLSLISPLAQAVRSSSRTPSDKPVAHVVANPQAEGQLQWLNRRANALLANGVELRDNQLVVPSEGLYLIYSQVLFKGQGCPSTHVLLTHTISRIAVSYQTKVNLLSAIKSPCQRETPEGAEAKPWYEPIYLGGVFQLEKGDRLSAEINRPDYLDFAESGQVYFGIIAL
Chain of 5-hydroxytryptamine receptor 6 (Homo sapiens) (P50406 whole entry): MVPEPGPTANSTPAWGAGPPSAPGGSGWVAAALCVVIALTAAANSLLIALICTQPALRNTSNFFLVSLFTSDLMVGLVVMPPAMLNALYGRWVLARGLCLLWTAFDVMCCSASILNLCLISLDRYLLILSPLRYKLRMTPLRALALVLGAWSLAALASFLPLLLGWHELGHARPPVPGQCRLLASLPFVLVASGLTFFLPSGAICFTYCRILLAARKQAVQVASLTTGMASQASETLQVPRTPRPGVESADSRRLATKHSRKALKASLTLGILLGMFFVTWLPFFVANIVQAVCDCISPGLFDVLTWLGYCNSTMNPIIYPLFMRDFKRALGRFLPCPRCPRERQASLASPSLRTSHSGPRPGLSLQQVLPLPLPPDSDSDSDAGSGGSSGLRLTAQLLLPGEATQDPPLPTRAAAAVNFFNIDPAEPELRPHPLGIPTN
Chain of Rho-associated protein kinase 2 (Homo sapiens) (O75116 whole entry, looked up): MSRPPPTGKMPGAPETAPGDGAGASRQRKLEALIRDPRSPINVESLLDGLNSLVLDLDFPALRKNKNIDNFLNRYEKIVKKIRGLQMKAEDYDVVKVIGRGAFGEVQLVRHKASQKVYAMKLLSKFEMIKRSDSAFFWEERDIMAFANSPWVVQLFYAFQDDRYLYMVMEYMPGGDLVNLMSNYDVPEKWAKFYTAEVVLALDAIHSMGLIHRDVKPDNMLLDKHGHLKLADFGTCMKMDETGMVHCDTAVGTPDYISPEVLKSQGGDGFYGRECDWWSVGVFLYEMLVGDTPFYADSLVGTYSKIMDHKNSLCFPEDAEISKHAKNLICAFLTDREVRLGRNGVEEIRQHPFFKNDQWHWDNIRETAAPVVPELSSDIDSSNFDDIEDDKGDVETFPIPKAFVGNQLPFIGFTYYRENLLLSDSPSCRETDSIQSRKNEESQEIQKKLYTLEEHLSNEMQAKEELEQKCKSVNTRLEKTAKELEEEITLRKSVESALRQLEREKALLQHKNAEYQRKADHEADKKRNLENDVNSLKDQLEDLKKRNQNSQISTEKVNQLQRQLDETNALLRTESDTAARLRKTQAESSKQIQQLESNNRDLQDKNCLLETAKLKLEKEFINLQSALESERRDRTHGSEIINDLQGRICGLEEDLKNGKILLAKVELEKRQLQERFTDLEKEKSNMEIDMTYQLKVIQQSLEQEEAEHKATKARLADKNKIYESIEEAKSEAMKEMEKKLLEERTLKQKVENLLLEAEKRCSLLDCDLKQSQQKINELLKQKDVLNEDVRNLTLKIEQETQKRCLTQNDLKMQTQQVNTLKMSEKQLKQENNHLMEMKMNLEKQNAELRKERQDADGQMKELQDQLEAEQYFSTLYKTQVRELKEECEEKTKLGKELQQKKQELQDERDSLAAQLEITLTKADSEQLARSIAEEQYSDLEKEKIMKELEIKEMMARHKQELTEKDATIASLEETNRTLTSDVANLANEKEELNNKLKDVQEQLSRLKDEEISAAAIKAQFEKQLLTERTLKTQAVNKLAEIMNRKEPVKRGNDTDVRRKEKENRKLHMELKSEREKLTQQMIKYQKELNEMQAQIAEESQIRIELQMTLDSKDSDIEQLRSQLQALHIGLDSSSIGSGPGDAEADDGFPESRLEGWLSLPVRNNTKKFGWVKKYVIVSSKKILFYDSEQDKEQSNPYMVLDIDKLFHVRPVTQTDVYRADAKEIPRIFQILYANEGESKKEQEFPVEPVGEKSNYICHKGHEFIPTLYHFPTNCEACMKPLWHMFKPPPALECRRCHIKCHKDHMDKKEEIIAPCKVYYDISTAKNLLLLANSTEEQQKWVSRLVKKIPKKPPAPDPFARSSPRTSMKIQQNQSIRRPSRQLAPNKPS
Chain of Histamine H2 receptor (Homo sapiens) (P25021 whole entry): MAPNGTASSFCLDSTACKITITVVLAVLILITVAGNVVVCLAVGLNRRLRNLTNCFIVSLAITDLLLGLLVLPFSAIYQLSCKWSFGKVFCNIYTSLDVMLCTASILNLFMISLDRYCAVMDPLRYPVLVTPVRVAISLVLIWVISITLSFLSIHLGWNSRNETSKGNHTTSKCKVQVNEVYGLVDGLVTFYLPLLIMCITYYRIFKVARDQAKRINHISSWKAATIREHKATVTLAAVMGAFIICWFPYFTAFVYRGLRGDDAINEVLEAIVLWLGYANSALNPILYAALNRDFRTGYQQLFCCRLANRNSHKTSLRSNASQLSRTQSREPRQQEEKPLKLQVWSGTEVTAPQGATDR
Chain of Thromboxane A2 receptor (Homo sapiens) (P21731 whole entry): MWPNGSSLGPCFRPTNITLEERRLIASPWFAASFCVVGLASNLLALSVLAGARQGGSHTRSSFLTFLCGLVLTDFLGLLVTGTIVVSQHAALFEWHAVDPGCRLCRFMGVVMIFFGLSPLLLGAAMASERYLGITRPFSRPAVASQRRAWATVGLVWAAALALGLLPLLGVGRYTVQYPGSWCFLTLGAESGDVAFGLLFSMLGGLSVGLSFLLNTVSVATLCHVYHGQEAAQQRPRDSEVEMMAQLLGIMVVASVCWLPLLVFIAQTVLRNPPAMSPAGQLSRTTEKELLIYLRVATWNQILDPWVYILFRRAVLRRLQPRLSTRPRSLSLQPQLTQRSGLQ
Chain of Substance-K receptor (Homo sapiens) (P21452 whole entry): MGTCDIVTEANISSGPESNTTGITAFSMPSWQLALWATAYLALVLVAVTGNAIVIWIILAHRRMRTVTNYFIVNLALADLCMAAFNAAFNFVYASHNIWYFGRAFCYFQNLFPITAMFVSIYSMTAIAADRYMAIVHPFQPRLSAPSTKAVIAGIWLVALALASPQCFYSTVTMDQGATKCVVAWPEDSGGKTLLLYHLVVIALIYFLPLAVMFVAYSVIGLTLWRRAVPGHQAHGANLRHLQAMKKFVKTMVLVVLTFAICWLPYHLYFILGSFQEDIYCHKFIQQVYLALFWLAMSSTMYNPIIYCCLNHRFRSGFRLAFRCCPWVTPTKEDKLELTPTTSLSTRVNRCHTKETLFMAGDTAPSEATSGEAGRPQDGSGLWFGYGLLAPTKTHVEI
Chain of Calcium/calmodulin-dependent protein kinase kinase 1 (Homo sapiens) (Q8N5S9 whole entry, looked up): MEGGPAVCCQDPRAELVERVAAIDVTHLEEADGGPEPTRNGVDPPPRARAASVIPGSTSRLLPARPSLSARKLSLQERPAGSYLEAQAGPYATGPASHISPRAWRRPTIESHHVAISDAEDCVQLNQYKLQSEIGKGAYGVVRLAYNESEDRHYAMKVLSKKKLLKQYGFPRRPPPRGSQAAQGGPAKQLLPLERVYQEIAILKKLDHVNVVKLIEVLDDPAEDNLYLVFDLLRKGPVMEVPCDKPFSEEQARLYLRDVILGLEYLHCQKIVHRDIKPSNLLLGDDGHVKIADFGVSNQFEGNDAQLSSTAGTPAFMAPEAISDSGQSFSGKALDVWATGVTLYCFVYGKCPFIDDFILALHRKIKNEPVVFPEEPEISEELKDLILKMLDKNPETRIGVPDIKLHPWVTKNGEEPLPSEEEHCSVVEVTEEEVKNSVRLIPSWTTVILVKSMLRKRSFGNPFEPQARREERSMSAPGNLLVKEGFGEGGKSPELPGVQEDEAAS
Chain of Type-2 angiotensin II receptor (Homo sapiens) (P50052 whole entry): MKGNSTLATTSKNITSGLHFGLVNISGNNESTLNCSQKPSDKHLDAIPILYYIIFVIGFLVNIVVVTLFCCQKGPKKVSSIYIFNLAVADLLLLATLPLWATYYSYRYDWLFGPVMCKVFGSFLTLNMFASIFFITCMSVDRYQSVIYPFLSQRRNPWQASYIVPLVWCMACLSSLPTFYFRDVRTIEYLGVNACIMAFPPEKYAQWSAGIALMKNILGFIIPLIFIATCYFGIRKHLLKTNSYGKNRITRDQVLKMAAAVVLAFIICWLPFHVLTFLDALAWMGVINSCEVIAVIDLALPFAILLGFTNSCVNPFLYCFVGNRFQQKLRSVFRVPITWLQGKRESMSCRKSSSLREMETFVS
Chain of Serine/threonine-protein kinase 17A (Homo sapiens) (Q9UEE5 whole entry): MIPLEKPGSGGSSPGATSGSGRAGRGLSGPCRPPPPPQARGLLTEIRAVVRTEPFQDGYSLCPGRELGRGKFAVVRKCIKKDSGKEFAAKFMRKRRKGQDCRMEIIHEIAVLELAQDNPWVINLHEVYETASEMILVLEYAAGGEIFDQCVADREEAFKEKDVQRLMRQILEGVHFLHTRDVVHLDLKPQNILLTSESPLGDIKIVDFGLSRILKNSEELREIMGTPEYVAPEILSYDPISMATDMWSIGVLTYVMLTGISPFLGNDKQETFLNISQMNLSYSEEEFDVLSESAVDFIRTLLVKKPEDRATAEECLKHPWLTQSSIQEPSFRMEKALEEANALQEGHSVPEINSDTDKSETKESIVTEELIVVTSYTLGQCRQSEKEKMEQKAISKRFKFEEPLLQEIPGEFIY

In the case of `CCC(=N\O)/C(C)=C/c1ccc(F)c(C)c1` [A-226], the residual activity [1] is reported as 73%, the residual activity [2] is reported as 100% and the residual activity [3] is reported as 100%. The inhibition [4] was 10.2%, the residual activity [5] was 100% and the IC50 [6] was > 100 µM (not active).

With `CCC(=N\O)/C(C)=C/c1ccc(F)cc1` [A-079] the inhibition [7] was 6%, the inhibition [8] was 0% and the inhibition [9] was 14%. For the same compound, the inhibition [10] was 32%, the inhibition at 10 µM [11] was 17% (not active) and the inhibition [12] was 6%. For the same compound, the inhibition [13] was -5%, the inhibition [14] was 29% and the inhibition [15] was -9%. For the same compound, the inhibition [16] was 0%, the inhibition [17] was -3% and the inhibition [18] was 14%. It also gave an inhibition [19] of -2%, an inhibition [20] of 3% and an inhibition [21] of -8%. The inhibition [22] was 23%, the inhibition [23] was 1% and the inhibition [24] was 2%. It also gave an inhibition [25] of -1%, an inhibition [26] of -6% and an inhibition [27] of -4%. The inhibition [28] was 4%, the inhibition [29] was -5% and the inhibition [30] was -3%.
